Source: patent US20130317054A1, “NEURONAL NICOTINIC AGONIST AND METHODS OF USE” (ABBVIE INC., priority 2012, published 2013)

Legend:
[1] = system: patients with schizophrenia; conditions: cigarettes, sprays, patch; cited from earlier work
[2] = system: clinically stable subjects with schizophrenia; experiment: Phase 2a Clinical Study A: disposition of subjects and tolerability; type: in vivo, human; conditions: for Primary reason for discontinuation: Adverse event: percentages based on treated subjects
Text: (§1) A Phase 2a proof-of-concept (POC) study in clinically stable subjects with schizophrenia who were clinically stable and received stable doses of atypical antipsychotic therapy. The study was a Phase 2, multi-center, randomized, double-blind, placebo-controlled, parallel group study designed to evaluate the safety and efficacy of doses of (4s)-4-(5-phenyl-1,3,4-thiadiazol-2-yloxy)-1-azatricyclo[3.3.1.1^3,7]decane (Compound A) in clinically stable male and female subjects (ages 20 to 55, inclusive) with a Diagnostic and Statistical Manual of Mental Disorders—Fourth Edition, Text Revision (DSM-IV-TR) diagnosis of schizophrenia. Psychiatric diagnoses were confirmed using the Mini-International Neuropsychiatric Interview (MINI) version 6.0.0. The criteria for clinical stability was determined by a combination of retrospective data (over the 4 months prior to the start of Screening, which will be supported by clinical records, patient, identified responsible contact person, and physician interviews), and prospective data assessed during the Prospective Stabilization Period of 28 to 42 days duration.
(§2) The study was a Phase 2, multi-center, randomized, double-blind, placebo-controlled, parallel group study designed to evaluate the safety and efficacy of doses of (4s)-4-(5-phenyl-1,3,4-thiadiazol-2-yloxy)-1-azatricyclo[3.3.1.1^3,7]decane, which is also recognized as Compound A, in treating cognitive deficits in subjects with schizophrenia who were clinically stable and receiving one or two atypical antipsychotic medications. Study drug was administered orally.
(§3) The study consisted of a screening period of at least 28 and up to 42 days, a 84-day outpatient treatment period, a 14-day post-treatment period, and a post-treatment follow-up period. The screening period consisted of three visits: Screening Visit 1, Screening Visit 2, and Day −1. Upon completion of Day −1 procedures, eligible subjects were randomized through an Interactive Voice Response/Interactive Web-Based (IVR/IWB) system. Subjects were randomized in an equal ratio to one of three treatment groups (placebo, 10 mg Compound A, or 25 mg Compound A).
(§4) Subjects were randomized in a 1:1:1 ratio with placebo, 10 mg QD Compound A, of 25 mg Compound A. Each subject was instructed to take study drug once-daily in the morning for 12 weeks. Each daily dose was preferably taken with food. The subject and investigator were blinded to the treatment assignment throughout the study. The treatment assignments for the study subjects are shown below in Table 1.
Subjects completed 2 visits during the screening period. […]

[3] = system: clinically stable subjects with schizophrenia; experiment: Phase 2a Clinical Study A: UCSD Performance-Based Skills Assessment-2 (UPSA-2); type: in vivo, human; conditions: for UPSA-2 change from baseline score: placebo 2.6, not statistically significant
Text: as §1, §2, §3, §4
(§5) The primary endpoint was the MCCB composite score, and the primary endpoint analysis was the change on the MCCB composite score from baseline to endpoint versus placebo. Other secondary measures included the MCCB domains, the NSA-16, the CANTAB cognition battery (measured at different time points from the MCCB), and the UPSA-2. The Positive and Negative Syndrome Scale (PANSS) was included to document stability in schizophrenia symptomatology.
The UCSD Performance-Based Skills Assessment-2 (UPSA-2) is a role-play test designed for subjects with schizophrenia to evaluate cognitive functional capacity in six selected domains of basic living skills. These areas include Organization/Planning, Financial Skills, Communication, Transportation, Household Management, and Medication Management. […] Scores were obtained for each subtest, and the total score was the sum of these subtests. […] The UPSA-2 required an average of 30 minutes to administer. The UPSA-2 was administered in on Days 14, 28, 56, 84 and 98.

[4] = system: clinically stable subjects with schizophrenia; experiment: Phase 2a Clinical Study A: NSA-16 (negative symptoms); type: in vivo, human
Text: as §1, with “Psychiatric diagnoses were confirmed using the Mini-International Neuropsychiatric Interview (MINI) version 6.0.0.” left out, “duration. […]” for “duration.”
as §5, with “The Positive and Negative Syndrome Scale (PANSS) was included to document stability in schizophrenia symptomatology.” left out

[5] = system: clinically stable subjects with schizophrenia; experiment: Phase 2a Clinical Study A: MATRICS Consensus Cognitive Battery (MCCB); type: in vivo, human; conditions: for change from baseline to Week 12 in MCCB composite score (LS mean): ITT analysis, 12 weeks; for MCCB composite LS mean change from baseline to Week 12: subset of nonsmokers
Text: as §1, §2, §3, §4, §5
The MCCB was developed by a consortium of academic, industry, the Food and Drug Administration (FDA) and National Institute of Mental Health (NIMH) members called Measurement and Treatment Research to Improve Cognition in Schizophrenia (MATRICS). The battery was established in a multiple phase process that involved experts identifying cognitive tests in the literature that had shown deficits in schizophrenia, use of factor analysis to identify key domains of cognitive deficits in schizophrenia, and then empirically identifying the best tests for each domain based on reliability, validity and feasibility for use in clinical trials. The FDA has endorsed the MCCB as an appropriate outcome measure for Phase 3 CDS trials. […]

[6] = system: clinically stable subjects with schizophrenia; experiment: Phase 2a Clinical Study A: CANTAB cognition battery; type: in vivo, human; conditions: taken at different time points from the MCCB
Text: as §1, with “Psychiatric diagnoses were confirmed using the Mini-International Neuropsychiatric Interview (MINI) version 6.0.0.” left out, “duration. […]” for “duration.”
as §5, with “The Positive and Negative Syndrome Scale (PANSS) was included to document stability in schizophrenia symptomatology.” left out

[7] = system: clinically stable subjects with schizophrenia; experiment: Phase 2a Clinical Study A: Positive and Negative Syndrome Scale (PANSS); type: in vivo, human; conditions: ITT or nonsmoker groups, throughout the study
Text: as §1, with “Psychiatric diagnoses were confirmed using the Mini-International Neuropsychiatric Interview (MINI) version 6.0.0.” left out, “duration. […]” for “duration.”
as §5, with “The Positive and Negative Syndrome Scale (PANSS) was included to document stability in schizophrenia symptomatology.” left out

[8] = in vivo; cited from earlier work
[9] = system: patients with schizophrenia; conditions: cited from earlier work
[10] = nonsmokers, dose group not stated
[11] = subset of smoking subjects, both dose groups (10 mg, 25 mg)

CN1CCCC1c1cccnc1 (stereo not shown) [Nicotine, nicotine]
neuropsychological performance [1]: improved

c1ccc(-c2nnc(O[C@@H]3C4CC5C[C@H]3C[N@](C5)C4)s2)cc1 [Compound A, (4s)-4-(5-phenyl-1,3,4-thiadiazol-2-yloxy)-1-azatricyclo[3.3.1.1^3,7]decane]
Primary reason for discontinuation: Adverse event ([2]; 10 mg QD): 4 (5.8) n (%)
Primary reason for discontinuation: Adverse event ([2]; 25 mg QD): 3 (4.5) n (%)
Primary reason for discontinuation: Adverse event ([2]; Compound A overall): 7 (5.1) n (%)
tolerability in subjects with schizophrenia ([2]; doses up to 25 mg QD, including 10 mg QD and 25 mg QD): well tolerated
UPSA-2 composite score ([3]; ITT, either dose group (10 mg, 25 mg)): No significance
UPSA-2 change from baseline score ([3]; nonsmokers, 10 mg): 1.4
UPSA-2 change from baseline score ([3]; nonsmokers, 25 mg): 3.9
UPSA-2 effect size (Cohen's d) based on the raw data [3, 10]: 0.13
UPSA-2 model-based effect size [3, 10]: 0.23
change from baseline scores on the UPSA-2 [3, 11]: markedly similar to placebo
effect on negative symptoms of schizophrenia (summary) ([4]; human, in vivo): No effect
NSA-16 analyses ([4]; nonsmoking subjects and subjects with predominant negative symptoms): did not reveal statistical significance
change from baseline to Week 12 in MCCB composite score (LS mean) ([5]; 10 mg QD oral, P=0.088 versus placebo (LS mean +0.50)): +1.79
change from baseline to Week 12 in MCCB composite score (LS mean) ([5]; 25 mg QD oral, P=0.067 versus placebo (LS mean +0.50)): +2.02
effect on cognition in subjects with schizophrenia (summary) ([5]; driven by verbal learning, working memory and attention, consequence of the effect in nonsmoking subjects): procognitive effect
MCCB social cognition domain, mean values across treatment groups ([5]; nonsmokers, 10 mg, 25 mg and placebo): similar
MCCB all other domains with the exception of reasoning and problem solving, effect versus placebo ([5]; nonsmokers, active treatment groups, monotonic dose relationship): magnitude of effect was greater
MCCB composite LS mean change from baseline to Week 12 ([5]; 10 mg, P=0.021 compared to placebo (−0.7)): +2.1
MCCB composite LS mean change from baseline to Week 12 ([5]; 25 mg, P=0.001 compared to placebo (−0.7)): +4.5
change from baseline scores on the MCCB composite and domain scores [5, 11]: markedly similar to placebo
Results of the CANTAB battery [6]: markedly similar to those of the MCCB
changes in the PANSS scores [7]: no significant changes

O=C(N[C@H]1CN2CCC1CC2)c1cc2cccc(Cl)c2s1 [EVP-6124, N-[(3R)-1-azabicyclo[2.2.2]oct-3-yl]-7-chloro-1-benzothiophene-2-carboxamide]
effect on the CogState test battery [8]: improvements

COc1ccc(/C=C2\CCCN=C2c2cccnc2)c(OC)c1 [GTS-21]
effect on the Repeatable Battery for the Assessment of Neuropsychological Status total scale [9]: positive effects
